Experimental data taken from PubChem BioAssay (NCI).
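The concentration for 50% growth inhibition is given as GI50. TGI is the concentration that stops growth completely.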

Tests used:
Assay in all cases: NCI anticancer screen, dose series, 384-well format
SK-MEL-28 melanoma = test system: SK-MEL-28 melanoma
NCI-H226 lung = test system: NCI-H226 lung
OVCAR-4 ovarian = test system: OVCAR-4 ovarian
HOP-62 NSCLC = test system: HOP-62 NSCLC
SNB-75 CNS = test system: SNB-75 CNS
HL-60(TB) leukemia = test system: HL-60(TB) leukemia
U251 glioblastoma = test system: U251 glioblastoma
786-0 renal = test system: 786-0 renal
TK-10 renal = test system: TK-10 renal
NCI-H23 lung = test system: NCI-H23 lung
MOLT-4 leukemia = test system: MOLT-4 leukemia
SF-268 CNS = test system: SF-268 CNS
NCI-H522 lung = test system: NCI-H522 lung
M14 melanoma = test system: M14 melanoma
COLO 205 colon = test system: COLO 205 colon
SW-620 colon = test system: SW-620 colon
OVCAR-3 ovarian = test system: OVCAR-3 ovarian
RXF 393 renal = test system: RXF 393 renal
KM12 colon = test system: KM12 colon
MDA-MB-231 breast = test system: MDA-MB-231 breast
MDA-MB-435 melanoma = test system: MDA-MB-435 melanoma
ACHN renal = test system: ACHN renal
HCC-2998 colon = test system: HCC-2998 colon
CAKI-1 renal = test system: CAKI-1 renal
SN12C renal = test system: SN12C renal
HCT-116 colon = test system: HCT-116 colon
SNB-19 CNS = test system: SNB-19 CNS
SK-MEL-5 melanoma = test system: SK-MEL-5 melanoma
SF-295 CNS = test system: SF-295 CNS
A549 NSCLC = test system: A549 NSCLC
OVCAR-5 ovarian = test system: OVCAR-5 ovarian
OVCAR-8 ovarian = test system: OVCAR-8 ovarian
NCI/ADR-RES ovarian = test system: NCI/ADR-RES ovarian
HOP-92 NSCLC = test system: HOP-92 NSCLC
SF-539 CNS = test system: SF-539 CNS
EKVX NSCLC = test system: EKVX NSCLC
UACC-62 melanoma = test system: UACC-62 melanoma
NCI-H322M lung = test system: NCI-H322M lung
HS 578T breast = test system: HS 578T breast
CCRF-CEM leukemia = test system: CCRF-CEM leukemia
DU-145 prostate = test system: DU-145 prostate
SK-OV-3 ovarian = test system: SK-OV-3 ovarian
UO-31 renal = test system: UO-31 renal
PC-3 prostate = test system: PC-3 prostate
NCI-H460 NSCLC = test system: NCI-H460 NSCLC
IGROV1 ovarian = test system: IGROV1 ovarian
MDA-MB-468 breast = test system: MDA-MB-468 breast
T-47D breast = test system: T-47D breast
RPMI-8226 leukemia = test system: RPMI-8226 leukemia
HCT-15 colon = test system: HCT-15 colon
A498 renal = test system: A498 renal
BT-549 breast = test system: BT-549 breast
LOX IMVI melanoma = test system: LOX IMVI melanoma
K-562 leukemia = test system: K-562 leukemia
HT29 colon = test system: HT29 colon
MCF7 breast = test system: MCF7 breast
MALME-3M melanoma = test system: MALME-3M melanoma

`Cn1ccc(S(=O)(=O)N2CCC[C@H](Nc3nccc(-c4c(-c5cccc(O)c5)nc5occn45)n3)C2)n1` was tested, and the GI50 (SK-MEL-28 melanoma) was < 0.01 µM, the TGI (SK-MEL-28 melanoma) was 0.602 µM and the GI50 (NCI-H226 lung) was 11.2 µM. It also gave a TGI (NCI-H226 lung) of 37.8 µM, a GI50 (OVCAR-4 ovarian) of 20.2 µM and a TGI (OVCAR-4 ovarian) of 46 µM. It also gave a GI50 (HOP-62 NSCLC) of 10.4 µM, a TGI (HOP-62 NSCLC) of 30.7 µM and a GI50 (SNB-75 CNS) of 4.98 µM. The TGI (SNB-75 CNS) was 31.7 µM, the GI50 (HL-60(TB) leukemia) was 8.06 µM and the TGI (HL-60(TB) leukemia) was 20.1 µM. The GI50 (U251 glioblastoma) was 12.2 µM, the TGI (U251 glioblastoma) was 26.5 µM and the GI50 ([…]-0 renal) was 7.2 µM. It also gave a TGI (786-0 renal) of 32.5 µM, a GI50 (TK-10 renal) of 11.3 µM and a TGI (TK-10 renal) of 48.2 µM. The GI50 (NCI-H23 lung) was 3.95 µM, the TGI (NCI-H23 lung) was 17.8 µM and the GI50 (MOLT-4 leukemia) was 5.62 µM. It also gave a TGI (MOLT-4 leukemia) of 17.1 µM, a GI50 (SF-268 CNS) of 3.65 µM and a TGI (SF-268 CNS) of 13.8 µM. For the same compound, the GI50 (NCI-H522 lung) was 15.1 µM, the TGI (NCI-H522 lung) was 29.5 µM and the GI50 (M14 melanoma) was < 0.01 µM. For the same compound, the TGI (M14 melanoma) was 1.15 µM, the GI50 (COLO 205 colon) was < 0.01 µM and the TGI (COLO 205 colon) was 20.2 µM. It also gave a GI50 (SW-620 colon) of 11.6 µM, a TGI (SW-620 colon) of 25.5 µM and a GI50 (OVCAR-3 ovarian) of 6.66 µM. It also gave a TGI (OVCAR-3 ovarian) of 19.2 µM, a GI50 (RXF 393 renal) of 5.61 µM and a TGI (RXF 393 renal) of 19.2 µM. It also gave a GI50 (KM12 colon) of 15.1 µM, a TGI (KM12 colon) of 35.5 µM and a GI50 (MDA-MB-231 breast) of 2.04 µM. The TGI (MDA-MB-231 breast) was 23.6 µM, the GI50 (MDA-MB-435 melanoma) was 0.0187 µM and the TGI (MDA-MB-435 melanoma) was 21.5 µM. For the same compound, the GI50 (ACHN renal) was 7.99 µM, the TGI (ACHN renal) was 35.8 µM and the GI50 (HCC-2998 colon) was 4.05 µM. The TGI (HCC-2998 colon) was 11.2 µM, the GI50 (CAKI-1 renal) was 4.38 µM and the TGI (CAKI-1 renal) was 19.3 µM. The GI50 (SN12C renal) was 8.01 µM, the TGI (SN12C renal) was 30.7 µM and the GI50 (HCT-116 colon) was 3.59 µM. The TGI (HCT-116 colon) was 16.4 µM, the GI50 (SNB-19 CNS) was 27.1 µM and the TGI (SNB-19 CNS) was > 100 µM. It also gave a GI50 (SK-MEL-5 melanoma) of 0.0669 µM, a TGI (SK-MEL-5 melanoma) of 14 µM and a GI50 (SF-295 CNS) of 20.2 µM. For the same compound, the TGI (SF-295 CNS) was 43.5 µM, the GI50 (A549 NSCLC) was 11.9 µM and the TGI (A549 NSCLC) was 25.2 µM. It also gave a GI50 (OVCAR-5 ovarian) of 11.9 µM, a TGI (OVCAR-5 ovarian) of 38.4 µM and a GI50 (OVCAR-8 ovarian) of 13.3 µM. The TGI (OVCAR-8 ovarian) was 36.9 µM, the GI50 (NCI/ADR-RES ovarian) was > 100 µM and the TGI (NCI/ADR-RES ovarian) was > 100 µM. The GI50 (HOP-92 NSCLC) was 5.55 µM, the TGI (HOP-92 NSCLC) was 26.4 µM and the GI50 (SF-539 CNS) was 12.6 µM. For the same compound, the TGI (SF-539 CNS) was 25.5 µM, the GI50 (EKVX NSCLC) was 4.71 µM and the TGI (EKVX NSCLC) was 17.5 µM. For the same compound, the GI50 (UACC-62 melanoma) was < 0.01 µM, the GI50 (NCI-H322M lung) was 10.1 µM and the TGI (NCI-H322M lung) was 35.9 µM. The GI50 (HS 578T breast) was 3.33 µM, the TGI (HS 578T breast) was 15.8 µM and the GI50 (CCRF-CEM leukemia) was 2.32 µM. It also gave a TGI (CCRF-CEM leukemia) of 4.7 µM, a GI50 (DU-145 prostate) of 14.4 µM and a TGI (DU-145 prostate) of 33.8 µM. It also gave a GI50 (SK-OV-3 ovarian) of 6.83 µM, a TGI (SK-OV-3 ovarian) of 23.6 µM and a GI50 (UO-31 renal) of 1.64 µM. The TGI (UO-31 renal) was 22 µM, the GI50 (PC-3 prostate) was 8.79 µM and the TGI (PC-3 prostate) was 34 µM. The GI50 (NCI-H460 NSCLC) was 12.1 µM, the TGI (NCI-H460 NSCLC) was 26.3 µM and the GI50 (IGROV1 ovarian) was 4.14 µM. For the same compound, the TGI (IGROV1 ovarian) was 17 µM, the GI50 (MDA-MB-468 breast) was 5.59 µM and the TGI (MDA-MB-468 breast) was 18.5 µM. For the same compound, the GI50 (T-47D breast) was 11.1 µM, the TGI (T-47D breast) was 23.4 µM and the GI50 (RPMI-8226 leukemia) was 10.5 µM. For the same compound, the TGI (RPMI-8226 leukemia) was 22.4 µM, the GI50 (HCT-15 colon) was 14.2 µM and the TGI (HCT-15 colon) was 35.7 µM. For the same compound, the GI50 (A498 renal) was 3.82 µM, the TGI (A498 renal) was 17.2 µM and the GI50 (BT-549 breast) was 7.47 µM. It also gave a TGI (BT-549 breast) of 21.8 µM, a GI50 (LOX IMVI melanoma) of 1.24 µM and a TGI (LOX IMVI melanoma) of 2.83 µM. The GI50 (K-562 leukemia) was 7.07 µM, the TGI (K-562 leukemia) was 41.4 µM and the GI50 (HT29 colon) was 0.325 µM. It also gave a TGI (HT29 colon) of 13.7 µM, a GI50 (MCF7 breast) of 6.67 µM and a TGI (MCF7 breast) of 19.9 µM. For the same compound, the GI50 (MALME-3M melanoma) was < 0.01 µM.
